Measured values taken from US11998515B1, “Enhancement of curcumin plasma levels using eucalyptol co-administration” (KING FAISAL UNIVERSITY, priority 2023, dated 2024).

Test: Curcumin concentration in blood of rats after ten days of once-daily oral dosing, determined by HPLC/DAD
Format: in vivo
Description: This experiment involved the use of 6 groups of rats (n=6):
Group 1: is the control group, where the animals received a solution of 0.5% carboxy methyl cellulose (CMC) in normal saline (formulation vehicle) once daily orally for ten days.
Group 2: Rats were given Eucalyptol (20 mg/kg) solubilized in 0.5% carboxy methyl cellulose (CMC) in normal saline once a day orally for ten days.
Group 3: Rats were administered curcumin (10 mg/kg) solubilized in 0.5% carboxy methyl cellulose (CMC) in normal saline once daily orally for ten days.
Groups 4, 5 and 6: Rats were given combinations of curcumin (10 mg/kg) with Eucalyptol (5 mg/kg, group 4), (10 mg/kg group 5), and (20 mg/kg, group 6), solubilized in 0.5% carboxy methyl cellulose (CMC) in normal saline orally once daily for ten days.
After the last dose on day 10, blood samples were withdrawn from animals after 0.5, 1, 2, 4, 6, 12 and 24 hours, and HPLC/DAD techniques determined the concentrations of curcumin.

COc1cc(/C=C/C(=O)CC(=O)/C=C/c2ccc(O)c(OC)c2)ccc1O [curcumin]
time after administration at which curcumin concentration increased in serum (after last dose on day 10, curcumin 10 mg/kg alone): 1 h | time after administration at which curcumin concentration reached the maximum concentration in serum (after last dose on day 10, curcumin 10 mg/kg alone (group 3)): 6 h
